Data set [1] addresses T1, 5-HT2C receptor (Homo sapiens, UniProt P28335).
T1 sequence (P28335 33-458): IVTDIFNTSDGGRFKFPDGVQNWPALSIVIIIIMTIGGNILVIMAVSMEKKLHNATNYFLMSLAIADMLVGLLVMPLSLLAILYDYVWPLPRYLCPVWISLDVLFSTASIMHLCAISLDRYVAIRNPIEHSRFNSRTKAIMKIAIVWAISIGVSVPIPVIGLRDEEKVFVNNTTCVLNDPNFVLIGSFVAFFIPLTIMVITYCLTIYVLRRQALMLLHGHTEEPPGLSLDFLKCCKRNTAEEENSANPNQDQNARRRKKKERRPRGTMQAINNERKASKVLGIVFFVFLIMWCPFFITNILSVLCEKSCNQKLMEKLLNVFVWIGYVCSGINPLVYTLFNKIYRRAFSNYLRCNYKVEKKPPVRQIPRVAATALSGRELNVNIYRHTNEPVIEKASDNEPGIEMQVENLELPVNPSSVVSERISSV
Kind of data set: cell-based. To be noted: Ca2+ flux. The data set is classed as cell-based. For orientation: A change in cytosolic calcium serves as a functional read-out for many receptors and channels.

Data set [2] in a line: Stability in rat brain homogenate. The data set is classed as in vitro ADME, male Sprague Dawley rats. To be noted: rat brain homogenate, 1 μM, 37° C.; for half-life at 1 µM: male, Sprague Dawley.
The nature of data set [3]: Metabolic stability in human liver microsomes (HLM). Details: microsomal CLint / half-life: dose or concentration left out as unconfirmed. To be noted: both, human, pooled human liver microsomes, pH 7.4.
In a further data set the target is T2, 5-HT2B (Homo sapiens, UniProt P41595).
T2 construct: host or cells: HEK293
Kind of data set: FLIPR Ca2+ flux agonist assay at 5-HT2B. The data set is classed as cell-based. To be noted: for 5-HT2B % Act @ Max Dose: Ca2+ flux, HEK293, max dose.

The target of data set [4] is T1, 5-HT2C receptor. The experiment in a line: 5-HT2C receptor radioligand binding ([3H]mesulergine). To be noted: for Ki: HEK293 stable cell line, 2 nM [3H]mesulergine; for binding to the 5-HT2C receptor (in words): compared with 5-HT2A receptor binding. As for the experimental part:
The binding affinities of disclosed compounds at the mesulergine binding site of the 5-HT2C receptor were determined in radioligand binding experiments.
Method. Affinity of the test compounds for the 5-HT2C receptor was determined in radioligand binding experiments with [^3H]mesulergine by WuXi AppTec (Hong Kong) Limited, using methods adapted from the literature and under conditions described in Table 11.

The subject of data set [5] is monoamine oxidase A and B (MAO-A and MAO-B). The experiment in a line: Stability in the presence of monoamine oxidases (human liver mitochondria preparation). To be noted: for Remaining (t = 60 min) / half-life / microsomal CLint: human liver mitochondria; for half-life / microsomal CLint: human, pH 7.4. Also noted: half-life / microsomal CLint: dose or concentration left out as unconfirmed. As for the experimental part: Liver Mitochondria Incubations. Human liver mitochondria (Xenotech H0610.M) were used.

A further data set deals with T3, 5-HT1A (Homo sapiens, UniProt P08908).
T3 construct: host or cells: CHO cells
T3 sequence (P08908 1-422): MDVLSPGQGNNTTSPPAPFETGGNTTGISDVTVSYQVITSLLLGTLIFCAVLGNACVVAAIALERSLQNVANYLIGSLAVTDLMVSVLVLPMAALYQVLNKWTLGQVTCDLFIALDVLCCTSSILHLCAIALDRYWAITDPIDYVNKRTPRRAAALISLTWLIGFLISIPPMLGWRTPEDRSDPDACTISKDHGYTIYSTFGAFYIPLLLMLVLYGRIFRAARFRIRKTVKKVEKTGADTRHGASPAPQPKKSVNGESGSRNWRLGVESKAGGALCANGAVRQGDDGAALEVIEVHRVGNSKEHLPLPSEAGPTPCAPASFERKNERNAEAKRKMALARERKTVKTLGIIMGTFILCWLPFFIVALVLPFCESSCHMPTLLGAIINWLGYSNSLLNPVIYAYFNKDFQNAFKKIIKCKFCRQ
The experiment in a line: FLIPR Ca2+ flux agonist assay at 5-HT1A. To be noted: for 5-HT1A % Act @ Max Dose: Ca2+ flux, CHO cells. The data set is classed as cell-based.

Data set [6] addresses T4, 5-HT2A (Homo sapiens, UniProt P28223). The experiment in a line: FLIPR Ca2+ flux agonist assay at 5-HT2A. The data set is classed as cell-based. Also noted: host or cells: HEK293. To be noted: for 5-HT2A % Act @ Max Dose: Ca2+ flux, HEK293, max dose.
Data set [7] in a line: Stability in mouse brain homogenate. The data set is classed as in vitro ADME, male CD-1 mice. To be noted: mouse brain homogenate, 1 μM, 37° C.; for half-life at 1 µM: male, CD-1.
Data set [8] addresses T4, 5-HT2A. Kind of data set: 5-HT2A receptor radioligand binding ([3H]ketanserin). To be noted: HEK293 stable cell line, 1 nM [3H]ketanserin; read-out: 5-HT2A Ki (nM) ([3H]Ketanserin). As for the experimental part: The binding affinities of disclosed compounds at the ketanserin binding site of the 5-HT2A receptor were determined in radioligand binding experiments.
Method. Affinity of the test compounds for the 5-HT2A receptor was determined in radioligand binding experiments with [^3H]ketanserin by WuXi AppTec (Hong Kong) Limited, using methods adapted from the literature and under conditions described in Table 4.

Where only a bound is given, the exact number is not on record here.

T4 sequence (P28223 whole entry): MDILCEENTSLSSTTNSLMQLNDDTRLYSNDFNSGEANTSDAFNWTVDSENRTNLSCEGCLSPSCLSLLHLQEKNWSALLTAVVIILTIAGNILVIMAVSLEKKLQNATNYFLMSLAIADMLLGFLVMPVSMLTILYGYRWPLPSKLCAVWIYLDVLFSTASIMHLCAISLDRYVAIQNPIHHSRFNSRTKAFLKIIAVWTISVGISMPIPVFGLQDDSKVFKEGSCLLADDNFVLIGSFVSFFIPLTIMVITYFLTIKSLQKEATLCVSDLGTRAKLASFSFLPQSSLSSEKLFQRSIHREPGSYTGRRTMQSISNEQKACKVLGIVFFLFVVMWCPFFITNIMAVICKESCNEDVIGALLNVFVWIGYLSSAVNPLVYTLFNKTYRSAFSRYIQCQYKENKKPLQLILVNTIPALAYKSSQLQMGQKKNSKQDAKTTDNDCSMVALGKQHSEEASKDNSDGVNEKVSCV
T2 sequence (P41595 whole entry, species assumed): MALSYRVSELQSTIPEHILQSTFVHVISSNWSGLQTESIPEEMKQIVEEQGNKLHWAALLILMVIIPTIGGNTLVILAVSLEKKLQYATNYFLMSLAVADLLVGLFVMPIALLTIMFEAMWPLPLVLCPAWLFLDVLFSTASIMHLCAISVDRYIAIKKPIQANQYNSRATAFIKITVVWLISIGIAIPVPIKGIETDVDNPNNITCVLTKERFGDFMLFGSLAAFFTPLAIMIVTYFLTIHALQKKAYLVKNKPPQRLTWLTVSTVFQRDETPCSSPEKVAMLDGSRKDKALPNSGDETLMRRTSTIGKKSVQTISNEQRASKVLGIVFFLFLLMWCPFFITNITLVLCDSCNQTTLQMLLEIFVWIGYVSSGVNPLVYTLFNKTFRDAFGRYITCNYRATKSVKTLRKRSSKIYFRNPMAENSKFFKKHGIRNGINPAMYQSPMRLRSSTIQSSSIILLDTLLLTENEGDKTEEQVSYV

`CC(C)n1cc(CCN(C)C)c2c(O)cc(F)cc21` [Compound 10, 3-(2-(dimethylamino)ethyl)-6-fluoro-1-isopropyl-1H-indol-4-ol]: at 5-HT2C receptor [1], the response was half-maximal at 30.1 nM (EC50), the “agonism at 5-HT2C (in words)” value is “potent partial agonism” and the “5-HT2C % Act @ Max Dose” value was determined as 43.06%. Also, in data set [2], the half-life at 1 µM is 4.49 h and the “% Compound Remaining (after 120 min)” value amounted to 71.4%. In data set [3], this compound showed a half-life of 1.78 h and a microsomal CLint of 12.9 µL/min/mg. On 5-HT2B, the EC50 was more than 10000 nM and the “5-HT2B % Act @ Max Dose” value is given as 1.99%. Besides, on 5-HT2C receptor [4], the affinity corresponds to a Ki of 10.5 nM and the “binding to the 5-HT2C receptor (in words)” value was “potent binding to the 5-HT2C receptor”. Besides, the “stability in the presence of MAO (in words)” value in data set [5] (human liver mitochondria preparation) is “intermediate stability”. Also, in data set [5], the “Remaining (t = 60 min)” value came out at 55.7%, the half-life came out at 1.31 h and the intrinsic metabolic clearance (microsomal CLint) is 29.4 µL/min/mg. For the same compound, at 5-HT1A, the EC50 is more than 100000 nM and the “5-HT1A % Act @ Max Dose” value was determined as 1.85%. At 5-HT2A [6], the EC50 was more than 1000 nM and the “5-HT2A % Act @ Max Dose” value came to 1.28%. In data set [7], the half-life at 1 µM was more than 4.82 h and the “% Compound Remaining (after 120 min)” value came out at 80.9%. In addition, the inhibition constant Ki at 5-HT2A [8] is 1190 nM.

In the case of `CNCCc1cn(C(C)C)c2cc(F)cc(O)c12` [Compound 12, 6-fluoro-1-isopropyl-3-(2-(methylamino)ethyl)-1H-indol-4-ol], at 5-HT2C receptor [1], the EC50 was found to be 25.3 nM, the “agonism at 5-HT2C (in words)” value is reported as “potent partial agonism” and the “5-HT2C % Act @ Max Dose” value stood at 57.17%. Besides, in data set [2], the half-life at 1 µM came out at 4.14 h and the “% Compound Remaining (after 120 min)” value was found to be 70.4%. Also, in data set [3], the half-life was more than 2.42 h and the intrinsic metabolic clearance (microsomal CLint) was less than 9.6 µL/min/mg. Moreover, at 5-HT2B, the EC50 was more than 10000 nM and the “5-HT2B % Act @ Max Dose” value is reported as 1.74%. Further, at 5-HT2C receptor [4], the Ki is 30.8 nM and the “binding to the 5-HT2C receptor (in words)” value was “potent binding to the 5-HT2C receptor”. Also, in data set [5], the “Remaining (t = 60 min)” value amounted to 104.0%, the half-life was more than 2.42 h and the microsomal CLint was less than 15.9 µL/min/mg. Besides, on 5-HT1A, the concentration for a half-maximal effect (EC50) was more than 100000 nM and the “5-HT1A % Act @ Max Dose” value is 3.96%. In addition, at 5-HT2A [6], the 50% effective concentration (EC50) was more than 1000 nM and the “5-HT2A % Act @ Max Dose” value is on record as 10.55%. Also, in data set [7], the half-life at 1 µM was found to be 4.39 h and the “% Compound Remaining (after 120 min)” value was found to be 72.3%. The inhibition constant Ki at 5-HT2A [8] was more than 1230 nM.

Usually EC50 stands for the midpoint of the concentration-response curve. As a reminder, the half-life is how long it takes for the measured level to halve. One may read the microsomal CLint as the capacity of the preparation to metabolise the compound, expressed as a volume cleared per time. As usually defined, the Ki is the equilibrium dissociation constant of an inhibitor or competing ligand from its target.

These data come from patent publication US20260234107A1, “TRYPTAMINES AND METHODS OF TREATING MOOD DISORDERS” (priority 2022, published 2026).
